# Measurements reported in ChEMBL document CHEMBL2203098 (J Med Chem, 2012).
# pIC50: −log10 of the molar value. The source made the active and inactive calls. The calls are words filed in the database; no cut-off is given here.
# Experiments:
# HT-22 [1] = experiment: Neurotoxicity in mouse hippocampal HT22 cells assessed as cell viability at 1 uM after 24 hrs by MTT assay; assay type: toxicity, cell-based; conditions: ht-22, 24 h
# HT-22 [2] = experiment: Neurotoxicity in mouse hippocampal HT22 cells assessed as cell viability at 10 uM after 24 hrs by MTT assay; assay type: toxicity, cell-based; conditions: ht-22, 24 h
# HT-22 [3] = experiment: Neurotoxicity in mouse hippocampal HT22 cells assessed as cell viability at 25 uM after 24 hrs by MTT assay; assay type: toxicity, cell-based; conditions: ht-22, 24 h
# HT-22 [4] = experiment: Neuroprotective activity against glutamate induced oxidative stress in mouse hippocampal HT22 cells assessed as cell viability at 1 uM after 24 hrs by MTT assay; assay type: functional, cell-based
# HT-22 [5] = experiment: Neuroprotective activity against glutamate induced oxidative stress in mouse hippocampal HT22 cells assessed as cell viability at 10 uM after 24 hrs by MTT assay; assay type: functional, cell-based
# HT-22 [6] = experiment: Neuroprotective activity against glutamate induced oxidative stress in mouse hippocampal HT22 cells assessed as cell viability at 25 uM after 24 hrs by MTT assay; assay type: functional, cell-based
# HT-22 [7] = experiment: Neuroprotective activity against glutamate induced oxidative stress in mouse hippocampal HT22 cells assessed as cell viability at 50 uM after 24 hrs by MTT assay; assay type: functional, cell-based
# [8] = Hepatotoxicity against human HSC cells assessed as reduction in cell number up to 200 uM after 24 hrs using crystal violet staining by photometry; assay type: toxicity, cell-based
# [9] = Hepatotoxicity against human HSC cells assessed as reduction in cell number at 10 to 75 uM after 24 hrs by fluorescence microscopic analysis; assay type: toxicity, cell-based
# [10] = Hepatotoxicity against human HSC cells assessed as mitochondrial swelling at 50 to 75 uM after 24 hrs by fluorescence microscopic analysis; assay type: toxicity, cell-based
# Rattus norvegicus [11] = experiment: Hepatoprotective activity in Wistar rat assessed as decrease in tissue content of TBARS at 2 uM/100 gram of body weight, ip after 24 hrs; assay type: functional; parameters: scale not given: the % may be the effect or the level left
# Acetylcholinesterase = Acetylcholinesterase (Electrophorus electricus, UniProt O42275)
# Chain of Acetylcholinesterase (O42275 whole entry): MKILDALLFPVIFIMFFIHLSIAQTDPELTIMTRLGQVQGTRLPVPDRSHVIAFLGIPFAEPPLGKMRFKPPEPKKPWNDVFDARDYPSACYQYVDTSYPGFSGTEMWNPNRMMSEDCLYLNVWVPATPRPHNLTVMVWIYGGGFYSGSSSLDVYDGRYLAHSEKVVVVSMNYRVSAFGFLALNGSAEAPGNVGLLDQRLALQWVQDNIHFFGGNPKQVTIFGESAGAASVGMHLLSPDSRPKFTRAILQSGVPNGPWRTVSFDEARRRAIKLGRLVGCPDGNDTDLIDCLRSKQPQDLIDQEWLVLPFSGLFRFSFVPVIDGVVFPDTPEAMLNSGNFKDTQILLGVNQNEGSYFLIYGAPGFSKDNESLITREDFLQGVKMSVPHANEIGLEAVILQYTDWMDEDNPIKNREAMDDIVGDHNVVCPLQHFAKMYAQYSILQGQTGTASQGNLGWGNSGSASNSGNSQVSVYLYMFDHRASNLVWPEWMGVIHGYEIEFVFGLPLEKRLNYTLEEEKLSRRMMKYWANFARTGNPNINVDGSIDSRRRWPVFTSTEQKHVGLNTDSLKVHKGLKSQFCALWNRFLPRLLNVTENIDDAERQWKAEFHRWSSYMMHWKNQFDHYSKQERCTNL
# Description: Inhibition of electric eel AChE by colorimetric Ellman assay
# Cholinesterase = Cholinesterase (Equus caballus, UniProt P81908)
# Chain of Cholinesterase (P81908 whole entry): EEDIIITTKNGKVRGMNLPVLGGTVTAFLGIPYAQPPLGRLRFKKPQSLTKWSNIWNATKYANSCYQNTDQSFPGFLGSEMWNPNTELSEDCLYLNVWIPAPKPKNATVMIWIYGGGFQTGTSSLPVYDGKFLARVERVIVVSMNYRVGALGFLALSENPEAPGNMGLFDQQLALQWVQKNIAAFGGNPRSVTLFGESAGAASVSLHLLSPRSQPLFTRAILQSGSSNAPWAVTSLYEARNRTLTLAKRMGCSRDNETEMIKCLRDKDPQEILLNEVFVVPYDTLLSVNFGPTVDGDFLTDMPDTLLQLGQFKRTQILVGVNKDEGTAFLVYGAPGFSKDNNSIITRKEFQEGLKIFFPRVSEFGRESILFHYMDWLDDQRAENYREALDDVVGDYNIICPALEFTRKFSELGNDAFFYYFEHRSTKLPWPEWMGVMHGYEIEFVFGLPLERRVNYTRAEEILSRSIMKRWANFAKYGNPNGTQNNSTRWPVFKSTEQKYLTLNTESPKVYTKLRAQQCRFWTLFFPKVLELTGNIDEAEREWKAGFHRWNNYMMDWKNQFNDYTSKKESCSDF
# [12] = molecular target: Acetylcholinesterase (Electrophorus electricus) (UniProt O42275); experiment: Inhibition of electric eel AChE at 100 uM by colorimetric Ellman assay
# Chain of Acetylcholinesterase (Electrophorus electricus) (O42275 24-633 limits assumed): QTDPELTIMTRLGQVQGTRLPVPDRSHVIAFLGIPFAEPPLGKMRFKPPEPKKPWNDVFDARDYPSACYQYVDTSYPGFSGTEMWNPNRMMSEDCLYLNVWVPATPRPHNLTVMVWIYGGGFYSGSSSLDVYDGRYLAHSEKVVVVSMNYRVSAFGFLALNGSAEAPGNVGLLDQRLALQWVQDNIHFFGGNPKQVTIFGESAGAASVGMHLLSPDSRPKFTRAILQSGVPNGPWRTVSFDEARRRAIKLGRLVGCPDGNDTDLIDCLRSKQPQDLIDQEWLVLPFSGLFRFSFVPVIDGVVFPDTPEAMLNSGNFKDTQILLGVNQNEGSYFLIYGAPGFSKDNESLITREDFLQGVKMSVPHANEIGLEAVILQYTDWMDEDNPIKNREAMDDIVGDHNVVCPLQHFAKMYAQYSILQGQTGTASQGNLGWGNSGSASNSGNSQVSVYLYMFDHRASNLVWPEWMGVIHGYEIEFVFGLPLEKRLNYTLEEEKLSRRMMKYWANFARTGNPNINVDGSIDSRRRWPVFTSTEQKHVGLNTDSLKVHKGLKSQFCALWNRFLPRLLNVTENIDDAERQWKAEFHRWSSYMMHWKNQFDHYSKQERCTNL
# [13] = molecular target: Cholinesterase (Equus caballus) (UniProt P81908); experiment: Inhibition of […] at 100 uM by colorimetric Ellman assay
# Chain of Cholinesterase (Equus caballus) (P81908 whole entry): as the sequence (P81908 whole entry) above
# Rattus norvegicus [14] = experiment: Hepatoprotective against tacrine-induced toxicity in Wistar rat liver assessed as increase in ratio of reduced/oxidised glutathione at 2 uM/100 gram of body weight, ip after 24 hrs; assay type: functional, organism-based
# Rattus norvegicus [15] = experiment: Hepatoprotective against tacrine-induced toxicity in Wistar rat liver assessed as increase in ratio of reduced/oxidised glutathione at 6 uM/100 gram of body weight, ip after 24 hrs; assay type: functional, organism-based
# Rattus norvegicus [16] = experiment: Hepatoprotective activity against tacrine-induced toxicity in Wistar rat liver assessed as decrease in tissue content of TBARS at 2 uM/100 gram of body weight, ip after 24 hrs; assay type: functional; parameters: scale not given: the % may be the effect or the level left
Structure (SMILES),Activity (HT-22 [1]),Activity (HT-22 [2]),Activity (HT-22 [3]),Activity (HT-22 [4]),Activity (HT-22 [5]),Activity (HT-22 [6]),Activity (HT-22 [7]),Activity [8],Activity [9],Activity [10],Activity (Rattus norvegicus [11]) [%],pIC50 (Acetylcholinesterase),pIC50 (Cholinesterase),inhibition [12] [%],inhibition [13] [%],Activity (Rattus norvegicus [14]),Activity (Rattus norvegicus [15]),Activity (Rattus norvegicus [16]) [%]
COc1cc([C@@H]2Oc3cc([C@H]4Oc5cc(O)cc(O)c5C(=O)[C@@H]4O)ccc3O[C@H]2COC(=O)CCC(=O)NCCCCCCNc2c3c(nc4ccccc24)CCCC3)ccc1O,Non-toxic,Non-toxic,Non-toxic,Active,Active,Active,Active,Non-toxic,Non-toxic,Non-toxic,25,7.27,7.30,,,,,
COc1cc(C2Oc3cc([C@H]4Oc5cc(O)cc(O)c5C(=O)[C@@H]4O)ccc3OC2CO)ccc1O (stereo partly specified) [SILIBININ],,,,inactive,inactive,inactive,inactive,,,,,,,5.5,3.1,Active,Active,15
O=C(O)CCC(=O)NCCCCCCNc1c2c(nc3ccccc13)CCCC2,,,,,,,,,,,,6.99,6.44,,,,,
NCCCCCCNc1c2c(nc3ccccc13)CCCC2,,,,,,,,,,,,7.41,8.70,,,,,
